Calls of active or inactive are those of the source. The calls are words filed in the database; no cut-off is given here.
How the values were obtained:
[1] = molecular target: Quadruplex DNA; assay: Binding affinity to 3-terminal mt6363 DNA (unknown origin) assessed as dissociation constant by TAMRA-labeled G4 quenching assay; assay type: nucleic-acid assay
[2] = molecular target: Quadruplex DNA; assay: Binding affinity to 5-terminal mt6363 DNA (unknown origin) assessed as dissociation constant by TAMRA-labeled G4 quenching assay; assay type: nucleic-acid assay
[3] = system: 4T1; assay: Cytotoxicity against mouse 4T1 cells assessed as reduction in cell viability incubated for 24 hrs by CCK-8 assay; assay type: functional, cell-based; details: 4T1, 24 h
[4] = system: 4T1; assay: Inhibition of colony formation in mouse 4T1 cells assessed as decrease in number of colonies measured after 10 days of treatment by […]; assay type: functional, cell-based; details: dose <= 2.0 µM, time 10.0 day
[5] = system: 4T1; assay: Inhibition of tumor metastasis in mouse 4T1 cells assessed as reduction in wound healing after 24 hrs; assay type: functional, cell-based
[6] = system: 4T1; assay: Induction of apoptosis in mouse 4T1 cells assessed as decrease in caspase-3 level at 5 uM by Western blotting analysis; assay type: functional, cell-based
[7] = system: Mitochondrial membrane; assay: Disruption of mitochondrial membrane potential in mouse 4T1 cells assessed as decrease red fluorescence at 0 to 5 uM by JC-1 staining based analysis; details: dose 0-5 µM
[8] = system: 4T1; assay: Induction of mitochondrial damage in mouse 4T1 cells assessed as increase in Dloop2 level by qPCR analysis; assay type: functional, cell-based
[9] = system: 4T1; assay: Induction of mitochondrial damage in mouse 4T1 cells assessed as increase in CytB level by qPCR analysis; assay type: functional, cell-based
[10] = system: 4T1; assay: Induction of ROS generation in mouse 4T1 cells assessed as increase 8-OG level in presence of 8-oxoguanine by DAPI staining based immunofluorescence based analysis; assay type: functional, cell-based
[11] = system: 4T1; assay: Induction of mitochondrial damage in mouse 4T1 cells assessed as dispersion of fluorescence Mitotracker red incubated for 1 hrs and measured after 24 hrs by immunofluorescence analysis; assay type: functional, cell-based; details: time 25.0 hrs
[12] = system: 4T1; assay: Induction of mitochondrial damage in mouse 4T1 cells assessed as disappearance of picogreen incubated for 1 hrs and measured after 24 hrs by immunofluorescence analysis; assay type: functional, cell-based; details: time 25.0 hrs
[13] = system: 4T1; assay: Activation of cGAS-STING pathway in mouse 4T1 cells assessed as […] in STING phosphorylation up to 5 uM by Western blot analysis; assay type: cell-based; details: filed as activator
[14] = system: 4T1; assay: Activation of cGAS-STING signaling pathway in mouse 4T1 cells assessed as […] in IRF3 phosphorylation up to 5 uM by Western blot analysis; assay type: cell-based; details: filed as activator
[15] = system: 4T1; assay: Activation of cGAS-STING signaling pathway in mouse 4T1 cells assessed as increase in IFN-beta level at 5 uM by qPCR analysis; assay type: cell-based; details: filed as activator
[16] = system: 4T1; assay: Activation of cGAS-STING signaling pathway in mouse 4T1 cells assessed as increase in ISG54 level at 5 uM by qPCR analysis; assay type: cell-based; details: filed as activator
[17] = system: 4T1; assay: Activation of cGAS-STING signaling pathway in mouse 4T1 cells assessed as increase in IL-6 level at 5 uM by qPCR analysis; assay type: cell-based; details: filed as activator
[18] = system: 4T1; assay: Antitumor activity against mouse 4T1 cells implanted with female BALB/c mouse assessed as decrease tumor weight at 2.5 mg/kg, sc administered for every 3 days for 2 weeks and measured on day 21; assay type: functional, organism-based; details: time 21.0 day
[19] = system: 4T1; assay: Induction of mitochondrial damage in mouse 4T1 cells assessed as decrease in ND4 level at 5 uM in presence of NAC by qPCR analysis; assay type: functional, cell-based
[20] = system: 4T1; assay: Induction of mitochondrial damage in mouse 4T1 cells assessed as decrease in Dloop2 level at 5 uM in presence of DDC by qPCR analysis; assay type: functional, cell-based
[21] = Toxicity in female BALB/c mouse implanted with mouse 4T1 cells assessed as body weight loss at 2.5 mg/kg, sc measured every other day for 21 days; assay type: organism-based; details: in vivo, 504 h, time 21 day
[22] = Toxicity in female BALB/c mouse implanted with mouse 4T1 cells assessed as change in heart weight at 2.5 mg/kg, sc measured after 21 days by Hematoxylin-Eosin staining based analysis; assay type: organism-based; details: in vivo, 504 h, time 21 day
[23] = Toxicity in female BALB/c mouse implanted with mouse 4T1 cells assessed as change in liver weight at 2.5 mg/kg, sc measured after 21 days by Hematoxylin-Eosin staining based analysis; assay type: organism-based; details: in vivo, 504 h, time 21 day
[24] = Toxicity in female BALB/c mouse implanted with mouse 4T1 cells assessed as change in lungs weight at 2.5 mg/kg, sc measured after 21 days by Hematoxylin-Eosin staining based analysis; assay type: organism-based; details: in vivo, 504 h, time 21 day
[25] = Toxicity in female BALB/c mouse implanted with mouse 4T1 cells assessed as change in kidney weight at 2.5 mg/kg, sc measured after 21 days by Hematoxylin-Eosin staining based analysis; assay type: organism-based; details: in vivo, 504 h, time 21 day
[26] = system: Mus musculus; assay: Immunostimulatory activity in female BALB/c mouse implanted with mouse 4T1 cells assessed as upregulation of M1 macrophages level 2.5 mg/kg, sc by flow cytometry analysis; assay type: functional, organism-based
[27] = system: Mus musculus; assay: Immunostimulatory activity in female BALB/c mouse implanted with mouse 4T1 cells assessed as increase in number of activated CD8+ T cells in spleen 2.5 mg/kg, sc by flow cytometry; assay type: functional, organism-based
[28] = system: 4T1; assay: Antitumor activity against mouse 4T1 cells implanted with female BALB/c mouse assessed as suppression in lung metastasis at 2.5 mg/kg, iv administered every 3 days for 2 weeks from day 7; assay type: functional, organism-based
[29] = Toxicity in female BALB/c mouse implanted with mouse 4T1 cells assessed as change in body weight at 2.5 mg/kg, iv administered every 3 days for 2 weeks from day 7; assay type: organism-based; details: in vivo, 336 h
[30] = system: Quadruplex DNA; assay: Binding affinity to G4-quadruplex mt6363 DNA (unknown origin) assessed as melting temperature at 10 uM incubated for 2 hrs by fluorescence based analysis; assay type: nucleic-acid assay
[31] = system: 4T1; assay: Induction of apoptosis in mouse 4T1 cells at 5 uM by Annexin V/PI staining based flow cytometry analysis; assay type: functional, cell-based
[32] = system: 4T1; assay: Activation of cGAS-STING signaling pathway in mouse 4T1 cells assessed as increase in IFN-beta level up to 5 uM by ELISA analysis; assay type: cell-based; details: filed as activator
[33] = system: 4T1; assay: Activation of cGAS-STING signaling pathway in mouse 4T1 cells assessed as increase in TNF-alpha level up to 5 uM by ELISA analysis; assay type: cell-based; details: filed as activator
[34] = system: 4T1; assay: Induction of mouse 4T1 cell maturation assessed as increase in CD86 positive cells by flow cytometric analysis; assay type: functional, cell-based; details: dose <= 5.0 µM
[35] = system: Mus musculus; assay: Immunostimulatory activity in female BALB/c mouse implanted with mouse 4T1 cells assessed as change in CD4+ T cells in spleen 2.5 mg/kg, sc by flow cytometry; assay type: functional, organism-based
[36] = system: Mus musculus; assay: In-vivo activation of cGAS-STING signaling pathway in female BALB/c mouse assessed as TBK1 level in tumor at 2.5 mg/kg, sc by Western blot analysis; assay type: functional, organism-based
[37] = system: Mus musculus; assay: In-vivo activation of cGAS-STING signaling pathway in female BALB/c mouse assessed as increase in IFN-beta level at 2.5 mg/kg, sc by ELISA analysis; assay type: functional, organism-based
[38] = system: Mus musculus; assay: In-vivo activation of cGAS-STING signaling pathway in female BALB/c mouse assessed as increase in TNF-alpha level at 2.5 mg/kg, sc by ELISA analysis; assay type: functional, organism-based
[39] = system: Mus musculus; assay: Immunostimulatory activity in female BALB/c mouse implanted with mouse 4T1 cells assessed as increase in CD8+ T cells in spleen 2.5 mg/kg, iv by flow cytometry; assay type: functional, organism-based

COc1ccc(N(c2ccc(/C=C/C3=[N+](C)c4ccc5ccccc5c4C3(C)C)cc2)c2ccc(OC)cc2)cc1.[I-]
Kd [1]: 1.9 µM
Kd [2]: 2.4 µM
IC50 [3]: 1.9 µM
Activity [4]: Dose-dependent-effect
Activity [5]: Active
Activity [6]: Active
Activity [7]: Active
Activity [8]: Active
Activity [9]: Active
Activity [10]: Active
Activity [11]: Active
Activity [12]: Active
Activity [13]: Active
Activity [14]: Active
Activity [15]: Active
Activity [16]: Active
Activity [17]: Active
Activity [18]: Active
Activity [19]: Active
Activity [20]: Active
Activity [21]: Non-toxic
Activity [22]: Non-toxic
Activity [23]: Non-toxic
Activity [24]: Non-toxic
Activity [25]: Non-toxic
Activity [26]: Active
Activity [27]: Active
Activity [28]: Active
Activity [29]: Non-toxic
Tm [30]: 46.2 °C
Activity [31]: Active
Activity [32]: Active
Activity [33]: Active
Activity [34]: Dose-dependent-effect
Activity [35]: Active
Activity [36]: Active
Activity [37]: Active
Activity [38]: Active
Activity [39]: Active

Reference: ChEMBL document CHEMBL6074620, “Discovery of a triphenylamine-based ligand that targets mitochondrial DNA G-quadruplexes and activates the cGAS-STING immunomodulatory pathway” (Eur J Med Chem, 2024)
